Assay results as given in patent US11725189B2, “Maintenance culture of induced pluripotent stem cell-derived intestinal stem cells” (PUBLIC UNIVERSITY CORPORATION NAGOYA CITY UNIVERSITY, priority 2017, dated 2023).

Experiments:
TGF-β receptor ALK5 = target: T1, TGF-β receptor ALK5 (Homo sapiens, UniProt P36897); conditions: cited from earlier work
T1 sequence (P36897 34-503): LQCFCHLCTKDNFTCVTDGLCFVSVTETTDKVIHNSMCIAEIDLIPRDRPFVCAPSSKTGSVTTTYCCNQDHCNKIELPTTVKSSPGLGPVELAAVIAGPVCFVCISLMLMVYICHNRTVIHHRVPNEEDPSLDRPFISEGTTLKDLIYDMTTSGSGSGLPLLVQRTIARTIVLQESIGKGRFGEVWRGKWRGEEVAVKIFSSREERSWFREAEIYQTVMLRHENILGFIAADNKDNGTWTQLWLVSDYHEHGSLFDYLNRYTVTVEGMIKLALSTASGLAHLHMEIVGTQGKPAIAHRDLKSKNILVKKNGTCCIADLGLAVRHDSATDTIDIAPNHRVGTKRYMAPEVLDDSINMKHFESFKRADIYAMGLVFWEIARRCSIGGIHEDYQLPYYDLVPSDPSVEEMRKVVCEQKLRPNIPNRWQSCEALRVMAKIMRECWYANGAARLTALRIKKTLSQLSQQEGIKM

TGF-β receptor ALK7 = target: T2, TGF-β receptor ALK7 (Homo sapiens, UniProt Q8NER5); conditions: cited from earlier work
T2 sequence (Q8NER5 21-493): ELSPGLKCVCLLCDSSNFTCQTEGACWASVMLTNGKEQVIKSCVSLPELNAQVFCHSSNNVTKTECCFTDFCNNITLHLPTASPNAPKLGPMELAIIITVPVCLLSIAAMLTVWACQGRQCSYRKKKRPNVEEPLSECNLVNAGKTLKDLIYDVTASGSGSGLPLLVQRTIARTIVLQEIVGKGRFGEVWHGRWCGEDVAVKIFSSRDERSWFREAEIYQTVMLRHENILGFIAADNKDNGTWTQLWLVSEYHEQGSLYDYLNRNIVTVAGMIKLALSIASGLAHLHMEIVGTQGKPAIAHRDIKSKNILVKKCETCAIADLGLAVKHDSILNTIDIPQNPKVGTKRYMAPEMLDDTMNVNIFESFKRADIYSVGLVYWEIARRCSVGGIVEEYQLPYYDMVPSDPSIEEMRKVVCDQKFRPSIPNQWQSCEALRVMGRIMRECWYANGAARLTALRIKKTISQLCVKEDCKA

TGF-β receptor ALK4 = target: T3, TGF-β receptor ALK4 (Homo sapiens, UniProt P36896); conditions: cited from earlier work
T3 sequence (P36896 24-505): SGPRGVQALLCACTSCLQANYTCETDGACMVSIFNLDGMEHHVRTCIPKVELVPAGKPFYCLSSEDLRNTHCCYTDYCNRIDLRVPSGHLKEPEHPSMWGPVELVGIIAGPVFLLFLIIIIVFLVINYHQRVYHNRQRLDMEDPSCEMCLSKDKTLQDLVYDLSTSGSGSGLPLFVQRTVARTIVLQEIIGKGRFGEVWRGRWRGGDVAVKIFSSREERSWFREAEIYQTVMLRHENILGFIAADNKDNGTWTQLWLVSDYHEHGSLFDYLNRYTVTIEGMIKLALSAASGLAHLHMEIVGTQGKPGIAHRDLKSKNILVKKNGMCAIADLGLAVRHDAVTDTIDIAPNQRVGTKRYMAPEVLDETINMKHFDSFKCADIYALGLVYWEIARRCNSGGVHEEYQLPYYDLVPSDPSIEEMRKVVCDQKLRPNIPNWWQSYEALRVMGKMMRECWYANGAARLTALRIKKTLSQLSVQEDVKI

chromogranin A (CgA) = assay: Detection of CgA mRNA (real-time RT-PCR) in human iPS cell-derived intestinal epithelial cells; type: cell-based
Text: (§1) iPS cells were allowed to differentiate into intestinal stem cells, which were then subcultured once. Thereafter, the cells were subjected to a maintenance culture according to the culture method of intestinal stem cells, which had been established in the above-described studies, and were then allowed to differentiate into intestinal epithelial cells.
(§2) After the differentiated intestinal epithelial cells had been recovered, RNA was extracted using Agencourt (registered trademark) RNAdvance™ Tissue Kit, in accordance with the instruction manual included therewith.
(§3) Complementary DNA (cDNA) was synthesized using ReverTra Ace (registered trademark) qPCR RT Master Mix, in accordance with the instruction manual included therewith.
(§4) Real-Time RT-PCR was carried out on cDNA used as a template, using KAPA SYBR Fast qPCR Kit, in accordance with the instruction manual included therewith.

mucin 2 = assay: Detection of mucin 2 mRNA (real-time RT-PCR) in human iPS cell-derived intestinal epithelial cells; type: cell-based
Text: as §1, §2, §3, §4

[1] = 100 μM or 200 μM rebamipide together with 200 μM indomethacin, 6 days

Cc1cccc(-c2nn(C(=S)Nc3ccccc3)cc2-c2ccnc3ccccc23)n1 [A-83-01]
inhibitory activity against TGF-β receptor ALK5 (TGF-β receptor ALK5): exhibited inhibitory activity
inhibitory activity against TGF-β receptor ALK7 (TGF-β receptor ALK7): exhibited inhibitory activity
inhibitory activity against TGF-β receptor ALK4 (TGF-β receptor ALK4): exhibited inhibitory activity

O=C(NC(Cc1cc(=O)[nH]c2ccccc12)C(=O)O)c1ccc(Cl)cc1 (centres unmarked) [rebamipide]
increase in the expression level of CgA (mRNA expression level) (chromogranin A (CgA); 50 μM, 100 μM and 200 μM added to the medium for 6 days): not particularly observed
decrease in the expression level of CgA (mRNA expression level) caused by indomethacin (chromogranin A (CgA); [1]): tended to be suppressed
expression level of mucin 2 (mRNA expression level) (mucin 2; 50 μM, 100 μM and 200 μM added to the medium for 6 days, versus control (Con)): increased
decrease in the expression of mucin 2 (mRNA expression level) caused by indomethacin (mucin 2; [1]): tended to be suppressed
cytotoxicity (mucin 2; 200 μM added to the medium (R200)): likely to cause cytotoxicity
